Assay results reported in patent US20230085307A1, “PYRIDAZINONE COMPOUND AND HERBICIDE” (NISSAN CHEMICAL CORPORATION, priority 2019, published 2023).

These molecules were tested on wild oat (assay: Test Example 5: herbicidal effect by foliage application, plastic box (Table 20, symbol I)). Details: 320 g/ha, foliage application after 14-day growth, evaluated three weeks after application.
Type: in vivo, wild oat (Avena fatua)
Procedure, shortened: (§1)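 Foliar spray test: emulsion formulation diluted in water to a set application rate, sprayed onto 14-day-old plants raised in diluvial soil at 25° C to 30° C under glass. Both herbicidal effect and crop effect rated visually three weeks later.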

Which “herbicidal effect on I: wild oat (evaluation grade 0-5)” value does the source give for `CCCC(=O)Oc1c(C)nn(C)c(=O)c1-c1c(-c2ccccc2CC)sc2c(Cl)cccc12` [4-063] here?
Its value is 0 (Herbicidal rate of 5% or less (almost no effect)).

Same assay, conditions: amount of applied herbicide 320 g/ha; foliage application after 14-day growth; evaluated three weeks after application

With `CCCC(=O)Oc1c(C)nn(C)c(=O)c1-c1c(-c2ccccc2SCC)sc2c(Cl)cccc12` [4-091] as the molecule, how does the “Herbicidal effect by foliage application, I: wild oat” value read?
The value was 0 (Herbicidal rate of 5% or less (almost no effect)).

Each molecule was assayed on lambsquarters (assay: Test Example 5: herbicidal effect by foliage application, plastic box (Table 20, symbol O)). Details: 320 g/ha, foliage application after 14-day growth, evaluated three weeks after application.
Type: in vivo, lambsquarters (Chenopodium album)
Procedure, shortened: as §1

With `CCCC(=O)Oc1c(C)nn(C)c(=O)c1-c1c(-c2ccccc2CC)sc2c(Cl)cccc12` [4-063] as the molecule, how does the “herbicidal effect on O: lambsquarters (evaluation grade 0-5)” value read?
Its value is 1 (Herbicidal rate of 5% or more and less than 20%).

Same assay, conditions: amount of applied herbicide 320 g/ha; foliage application after 14-day growth; evaluated three weeks after application

With `CCCC(=O)Oc1c(C)nn(C)c(=O)c1-c1c(-c2ccccc2SCC)sc2c(Cl)cccc12` [4-091] as the molecule, how does the “Herbicidal effect by foliage application, O: lambsquarters” value read?
The value was 1 (Herbicidal rate of 5% or more and less than 20%).

The molecules below were run on southern crabgrass (assay: Test Example 5: herbicidal effect by foliage application, plastic box (Table 20, symbol F)). Details: 320 g/ha, foliage application after 14-day growth, evaluated three weeks after application.
Type: in vivo, southern crabgrass (Digitaria ciliaris)
Procedure, shortened: as §1

How did the “herbicidal effect on F: southern crabgrass (evaluation grade 0-5)” value turn out when `CCCC(=O)Oc1c(C)nn(C)c(=O)c1-c1c(-c2ccccc2CC)sc2c(Cl)cccc12` [4-063] was run?
Its value is 0 (Herbicidal rate of 5% or less (almost no effect)).

Same assay, conditions: amount of applied herbicide 320 g/ha; foliage application after 14-day growth; evaluated three weeks after application

For `CCCC(=O)Oc1c(C)nn(C)c(=O)c1-c1c(-c2ccccc2SCC)sc2c(Cl)cccc12` [4-091], which “Herbicidal effect by foliage application, F: southern crabgrass” value is on record?
Its value is 4 (Herbicidal rate of 70% or more and less than 90%).

The molecules below were run on green foxtail (assay: Test Example 5: herbicidal effect by foliage application, plastic box (Table 20, symbol G)). Details: 320 g/ha, foliage application after 14-day growth, evaluated three weeks after application.
Type: in vivo, green foxtail (Setaria viridis)
Procedure, shortened: as §1

For `CCCC(=O)Oc1c(C)nn(C)c(=O)c1-c1c(-c2ccccc2CC)sc2c(Cl)cccc12` [4-063], which “herbicidal effect on G: green foxtail (evaluation grade 0-5)” value is on record?
The value was 0 (Herbicidal rate of 5% or less (almost no effect)).

Same assay, conditions: amount of applied herbicide 320 g/ha; foliage application after 14-day growth; evaluated three weeks after application

For `CCCC(=O)Oc1c(C)nn(C)c(=O)c1-c1c(-c2ccccc2SCC)sc2c(Cl)cccc12` [4-091], which “Herbicidal effect by foliage application, G: green foxtail” value is on record?
The value was 3 (Herbicidal rate of 40% or more and less than 70%).

What follows are molecules tested on Italian ryegrass (assay: Test Example 5: herbicidal effect by foliage application, plastic box (Table 20, symbol K)). Details: 320 g/ha, foliage application after 14-day growth, evaluated three weeks after application.
Type: in vivo, Italian ryegrass (Lolium multiflorum)
Procedure, shortened: as §1

`CCCC(=O)Oc1c(C)nn(C)c(=O)c1-c1c(-c2ccccc2CC)sc2c(Cl)cccc12` [4-063] was tested. Which “herbicidal effect on K: Italian ryegrass (evaluation grade 0-5)” value did it give?
Its value is 0 (Herbicidal rate of 5% or less (almost no effect)).

Same assay, conditions: amount of applied herbicide 320 g/ha; foliage application after 14-day growth; evaluated three weeks after application

For `CCCC(=O)Oc1c(C)nn(C)c(=O)c1-c1c(-c2ccccc2SCC)sc2c(Cl)cccc12` [4-091], which “Herbicidal effect by foliage application, K: Italian ryegrass” value is on record?
The value was 0 (Herbicidal rate of 5% or less (almost no effect)).

These molecules were tested on windgrass (assay: Test Example 5: herbicidal effect by foliage application, plastic box (Table 20, symbol L)). Details: 320 g/ha, foliage application after 14-day growth, evaluated three weeks after application.
Type: in vivo, windgrass (Apera spica-venti)
Procedure, shortened: as §1

How did the “herbicidal effect on L: windgrass (evaluation grade 0-5)” value turn out when `CCCC(=O)Oc1c(C)nn(C)c(=O)c1-c1c(-c2ccccc2CC)sc2c(Cl)cccc12` [4-063] was run?
The value was 0 (Herbicidal rate of 5% or less (almost no effect)).

Same assay, conditions: amount of applied herbicide 320 g/ha; foliage application after 14-day growth; evaluated three weeks after application

With `CCCC(=O)Oc1c(C)nn(C)c(=O)c1-c1c(-c2ccccc2SCC)sc2c(Cl)cccc12` [4-091] as the molecule, how does the “Herbicidal effect by foliage application, L: windgrass” value read?
Its value is 0 (Herbicidal rate of 5% or less (almost no effect)).

What follows are molecules tested on barnyard grass (assay: Test Example 5: herbicidal effect by foliage application, plastic box (Table 20, symbol H)). Details: 320 g/ha, foliage application after 14-day growth, evaluated three weeks after application.
Type: in vivo, barnyard grass (Echinochloa crus-galli)
Procedure, shortened: as §1

How did the “herbicidal effect on H: barnyard grass (evaluation grade 0-5)” value turn out when `CCCC(=O)Oc1c(C)nn(C)c(=O)c1-c1c(-c2ccccc2CC)sc2c(Cl)cccc12` [4-063] was run?
The value was 0 (Herbicidal rate of 5% or less (almost no effect)).

Same assay, conditions: amount of applied herbicide 320 g/ha; foliage application after 14-day growth; evaluated three weeks after application

For `CCCC(=O)Oc1c(C)nn(C)c(=O)c1-c1c(-c2ccccc2SCC)sc2c(Cl)cccc12` [4-091], which “Herbicidal effect by foliage application, H: barnyard grass” value is on record?
The value was 3 (Herbicidal rate of 40% or more and less than 70%).

What follows are molecules tested on chickweed (assay: Test Example 5: herbicidal effect by foliage application, plastic box (Table 20, symbol P)). Details: 320 g/ha, foliage application after 14-day growth, evaluated three weeks after application.
Type: in vivo, common chickweed (Stellaria media)
Procedure, shortened: as §1

Which “herbicidal effect on P: chickweed (evaluation grade 0-5)” value does the source give for `CCCC(=O)Oc1c(C)nn(C)c(=O)c1-c1c(-c2ccccc2CC)sc2c(Cl)cccc12` [4-063] here?
Its value is 0 (Herbicidal rate of 5% or less (almost no effect)).

Same assay, conditions: amount of applied herbicide 320 g/ha; foliage application after 14-day growth; evaluated three weeks after application

With `CCCC(=O)Oc1c(C)nn(C)c(=O)c1-c1c(-c2ccccc2SCC)sc2c(Cl)cccc12` [4-091] as the molecule, how does the “Herbicidal effect by foliage application, P: chickweed” value read?
Its value is 0 (Herbicidal rate of 5% or less (almost no effect)).

These molecules were tested on rice flat sedge (assay: Test Example 3: herbicidal effect by foliage application, Wagner pot (Table 18, symbol E)). Details: 320 g/ha.
Type: in vivo, rice flat sedge (Cyperus iria)
Procedure, shortened: (§2)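 Plants were sown in alluvial soil held under 0.1–0.5 cm standing water and grown 14 days in a greenhouse at 25–30 °C. An emulsifiable formulation, water-diluted to the set dose, was then sprayed onto the foliage, and effects were scored three weeks later using previously defined criteria.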

How did the “herbicidal effect on rice flat sedge (E)” value turn out when `CCCC(=O)Oc1c(C)nn(C)c(=O)c1-c1c(-c2ccccc2CC)sc2c(Cl)cccc12` [4-063] was run?
Its value is 4 (Herbicidal rate of 70% or more and less than 90%).

How did the “herbicidal effect on rice flat sedge (E)” value turn out when `CCCC(=O)Oc1c(C)nn(C)c(=O)c1-c1c(-c2ccccc2SCC)sc2c(Cl)cccc12` [4-091] was run?
The value was 3 (Herbicidal rate of 40% or more and less than 70%).

What follows are molecules tested on barnyard grass (assay: Test Example 3: herbicidal effect by foliage application, Wagner pot (Table 18, symbol H)). Details: 320 g/ha.
Type: in vivo, barnyard grass (Echinochloa crus-galli)
Procedure, shortened: as §2

With `CCCC(=O)Oc1c(C)nn(C)c(=O)c1-c1c(-c2ccccc2CC)sc2c(Cl)cccc12` [4-063] as the molecule, how does the “herbicidal effect on barnyard grass (H)” value read?
Its value is 5 (Herbicidal rate of 90% or more (almost completely withered)).

For `CCCC(=O)Oc1c(C)nn(C)c(=O)c1-c1c(-c2ccccc2SCC)sc2c(Cl)cccc12` [4-091], which “herbicidal effect on barnyard grass (H)” value is on record?
Its value is 5 (Herbicidal rate of 90% or more (almost completely withered)).

Each molecule was assayed on velvetleaf (assay: Test Example 5: herbicidal effect by foliage application, plastic box (Table 20, symbol M)). Details: 320 g/ha, foliage application after 14-day growth, evaluated three weeks after application.
Type: in vivo, velvetleaf (Abutilon theophrasti)
Procedure, shortened: as §1

How did the “herbicidal effect on M: velvetleaf (evaluation grade 0-5)” value turn out when `CCCC(=O)Oc1c(C)nn(C)c(=O)c1-c1c(-c2ccccc2CC)sc2c(Cl)cccc12` [4-063] was run?
Its value is 0 (Herbicidal rate of 5% or less (almost no effect)).

Same assay, conditions: amount of applied herbicide 320 g/ha; foliage application after 14-day growth; evaluated three weeks after application

`CCCC(=O)Oc1c(C)nn(C)c(=O)c1-c1c(-c2ccccc2SCC)sc2c(Cl)cccc12` [4-091] was tested. Which “Herbicidal effect by foliage application, M: velvetleaf” value did it give?
Its value is 2 (Herbicidal rate of 20% or more and less than 40%).

Each molecule was assayed on Chinese sprangletop (assay: Test Example 3: herbicidal effect by foliage application, Wagner pot (Table 18, symbol D)). Details: 320 g/ha.
Type: in vivo, chinese sprangletop (Leptochloa chinensis)
Procedure, shortened: as §2

For `CCCC(=O)Oc1c(C)nn(C)c(=O)c1-c1c(-c2ccccc2CC)sc2c(Cl)cccc12` [4-063], which “herbicidal effect on Chinese sprangletop (D)” value is on record?
Its value is 3 (Herbicidal rate of 40% or more and less than 70%).

`CCCC(=O)Oc1c(C)nn(C)c(=O)c1-c1c(-c2ccccc2SCC)sc2c(Cl)cccc12` [4-091] was tested. Which “herbicidal effect on Chinese sprangletop (D)” value did it give?
The value was 5 (Herbicidal rate of 90% or more (almost completely withered)).

These molecules were tested on persian speedwell (assay: Test Example 5: herbicidal effect by foliage application, plastic box (Table 20, symbol R)). Details: 320 g/ha, foliage application after 14-day growth, evaluated three weeks after application.
Type: in vivo, Persian speedwell (Veronica persica)
Procedure, shortened: as §1

How did the “herbicidal effect on R: persian speedwell (evaluation grade 0-5)” value turn out when `CCCC(=O)Oc1c(C)nn(C)c(=O)c1-c1c(-c2ccccc2CC)sc2c(Cl)cccc12` [4-063] was run?
Its value is 0 (Herbicidal rate of 5% or less (almost no effect)).

Same assay, conditions: amount of applied herbicide 320 g/ha; foliage application after 14-day growth; evaluated three weeks after application

How did the “Herbicidal effect by foliage application, R: persian speedwell” value turn out when `CCCC(=O)Oc1c(C)nn(C)c(=O)c1-c1c(-c2ccccc2SCC)sc2c(Cl)cccc12` [4-091] was run?
Its value is 4 (Herbicidal rate of 70% or more and less than 90%).

These molecules were tested on redroot pigweed (assay: Test Example 5: herbicidal effect by foliage application, plastic box (Table 20, symbol N)). Details: 320 g/ha, foliage application after 14-day growth, evaluated three weeks after application.
Type: in vivo, redroot pigweed (Amaranthus retroflexus)
Procedure, shortened: as §1

With `CCCC(=O)Oc1c(C)nn(C)c(=O)c1-c1c(-c2ccccc2CC)sc2c(Cl)cccc12` [4-063] as the molecule, how does the “herbicidal effect on N: redroot pigweed (evaluation grade 0-5)” value read?
The value was 3 (Herbicidal rate of 40% or more and less than 70%).

Same assay, conditions: amount of applied herbicide 320 g/ha; foliage application after 14-day growth; evaluated three weeks after application

`CCCC(=O)Oc1c(C)nn(C)c(=O)c1-c1c(-c2ccccc2SCC)sc2c(Cl)cccc12` [4-091] was tested. Which “Herbicidal effect by foliage application, N: redroot pigweed” value did it give?
The value was 3 (Herbicidal rate of 40% or more and less than 70%).

These molecules were tested on blackgrass (assay: Test Example 5: herbicidal effect by foliage application, plastic box (Table 20, symbol J)). Details: 320 g/ha, foliage application after 14-day growth, evaluated three weeks after application.
Type: in vivo, blackgrass (Alopecurus myosuroides)
Procedure, shortened: as §1

For `CCCC(=O)Oc1c(C)nn(C)c(=O)c1-c1c(-c2ccccc2CC)sc2c(Cl)cccc12` [4-063], which “herbicidal effect on J: blackgrass (evaluation grade 0-5)” value is on record?
Its value is 0 (Herbicidal rate of 5% or less (almost no effect)).

Same assay, conditions: amount of applied herbicide 320 g/ha; foliage application after 14-day growth; evaluated three weeks after application

How did the “Herbicidal effect by foliage application, J: blackgrass” value turn out when `CCCC(=O)Oc1c(C)nn(C)c(=O)c1-c1c(-c2ccccc2SCC)sc2c(Cl)cccc12` [4-091] was run?
Its value is 0 (Herbicidal rate of 5% or less (almost no effect)).
